Earlier results, collected in patent US6416998B1, “Plasmid encoding a modified steroid hormone” (Baylor College of Medicine, priority 1992, dated 2002).

Columns and labels:
Conditions in all cases: cited from earlier work
[1] = biological target: T1, human progesterone receptor (Homo sapiens, UniProt P06401)
T1 sequence (P06401 1-933): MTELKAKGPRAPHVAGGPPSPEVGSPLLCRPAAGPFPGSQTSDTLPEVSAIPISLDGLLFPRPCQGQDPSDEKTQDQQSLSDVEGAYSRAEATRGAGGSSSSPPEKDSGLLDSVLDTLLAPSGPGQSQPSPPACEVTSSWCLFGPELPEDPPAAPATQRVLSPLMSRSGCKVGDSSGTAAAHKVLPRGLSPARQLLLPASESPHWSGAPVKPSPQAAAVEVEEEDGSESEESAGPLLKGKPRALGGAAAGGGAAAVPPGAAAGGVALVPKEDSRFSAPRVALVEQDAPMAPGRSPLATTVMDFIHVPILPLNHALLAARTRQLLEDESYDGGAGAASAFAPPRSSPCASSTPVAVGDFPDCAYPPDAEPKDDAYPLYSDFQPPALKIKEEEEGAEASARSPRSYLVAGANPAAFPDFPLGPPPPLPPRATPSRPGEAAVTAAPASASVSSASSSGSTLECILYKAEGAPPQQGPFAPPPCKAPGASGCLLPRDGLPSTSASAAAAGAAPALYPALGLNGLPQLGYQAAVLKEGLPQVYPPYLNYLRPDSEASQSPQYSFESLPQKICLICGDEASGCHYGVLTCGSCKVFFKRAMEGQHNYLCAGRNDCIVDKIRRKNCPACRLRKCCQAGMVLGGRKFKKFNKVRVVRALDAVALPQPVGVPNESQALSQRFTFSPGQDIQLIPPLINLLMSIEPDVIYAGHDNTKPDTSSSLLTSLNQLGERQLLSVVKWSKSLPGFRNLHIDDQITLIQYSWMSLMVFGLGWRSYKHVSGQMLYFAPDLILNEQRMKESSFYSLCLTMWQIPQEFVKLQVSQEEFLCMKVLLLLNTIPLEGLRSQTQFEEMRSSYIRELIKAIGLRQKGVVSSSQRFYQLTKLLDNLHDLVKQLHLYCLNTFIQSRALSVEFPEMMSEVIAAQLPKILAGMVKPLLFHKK

[2] = biological target: T2, chicken progesterone receptor (Gallus gallus, UniProt P07812)
T2 sequence (P07812 1-786): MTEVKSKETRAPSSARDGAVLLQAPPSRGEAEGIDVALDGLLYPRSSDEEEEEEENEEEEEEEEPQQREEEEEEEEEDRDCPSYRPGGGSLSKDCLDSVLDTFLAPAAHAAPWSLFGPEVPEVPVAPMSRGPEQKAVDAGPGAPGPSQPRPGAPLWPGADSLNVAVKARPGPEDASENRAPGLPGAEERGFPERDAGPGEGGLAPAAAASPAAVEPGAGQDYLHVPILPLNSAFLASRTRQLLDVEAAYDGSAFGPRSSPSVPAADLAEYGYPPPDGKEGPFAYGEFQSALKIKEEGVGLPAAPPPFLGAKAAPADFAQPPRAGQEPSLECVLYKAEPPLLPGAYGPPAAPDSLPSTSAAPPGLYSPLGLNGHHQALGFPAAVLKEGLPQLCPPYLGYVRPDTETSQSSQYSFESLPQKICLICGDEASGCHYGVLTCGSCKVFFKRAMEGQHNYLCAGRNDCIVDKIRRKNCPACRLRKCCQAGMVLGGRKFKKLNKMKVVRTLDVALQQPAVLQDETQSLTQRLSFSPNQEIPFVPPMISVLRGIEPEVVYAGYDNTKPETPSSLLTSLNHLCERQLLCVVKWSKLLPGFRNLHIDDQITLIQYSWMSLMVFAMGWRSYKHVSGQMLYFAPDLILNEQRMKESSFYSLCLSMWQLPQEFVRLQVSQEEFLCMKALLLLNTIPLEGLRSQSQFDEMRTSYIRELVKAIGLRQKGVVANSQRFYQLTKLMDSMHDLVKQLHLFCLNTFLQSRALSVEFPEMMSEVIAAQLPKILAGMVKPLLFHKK

[3] = biological target: T3, rat progesterone receptor (Rattus norvegicus, UniProt Q63449)
T3 sequence (Q63449 1-923): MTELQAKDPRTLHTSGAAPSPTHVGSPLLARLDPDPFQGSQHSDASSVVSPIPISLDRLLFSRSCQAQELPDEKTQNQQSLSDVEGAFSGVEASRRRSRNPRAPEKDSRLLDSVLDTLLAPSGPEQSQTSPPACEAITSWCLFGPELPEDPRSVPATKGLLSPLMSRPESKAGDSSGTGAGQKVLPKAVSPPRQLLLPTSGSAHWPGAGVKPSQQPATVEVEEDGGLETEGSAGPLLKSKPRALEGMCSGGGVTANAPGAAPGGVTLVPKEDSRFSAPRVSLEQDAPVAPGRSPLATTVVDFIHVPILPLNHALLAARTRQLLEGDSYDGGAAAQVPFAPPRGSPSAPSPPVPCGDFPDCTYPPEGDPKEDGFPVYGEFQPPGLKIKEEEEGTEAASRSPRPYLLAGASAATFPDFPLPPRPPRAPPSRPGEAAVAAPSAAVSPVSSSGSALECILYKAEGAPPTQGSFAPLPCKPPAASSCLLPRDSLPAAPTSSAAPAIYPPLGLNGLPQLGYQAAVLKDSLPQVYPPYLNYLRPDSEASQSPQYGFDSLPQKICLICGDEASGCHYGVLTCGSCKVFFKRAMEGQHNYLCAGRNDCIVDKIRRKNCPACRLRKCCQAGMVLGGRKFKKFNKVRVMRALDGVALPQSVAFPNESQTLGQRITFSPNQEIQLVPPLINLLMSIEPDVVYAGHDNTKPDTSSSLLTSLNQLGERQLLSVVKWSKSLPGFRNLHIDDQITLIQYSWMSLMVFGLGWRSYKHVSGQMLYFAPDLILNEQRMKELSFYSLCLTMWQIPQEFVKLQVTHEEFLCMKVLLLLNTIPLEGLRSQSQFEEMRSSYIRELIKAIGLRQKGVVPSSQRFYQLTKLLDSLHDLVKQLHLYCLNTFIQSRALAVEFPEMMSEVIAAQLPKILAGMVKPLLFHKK

Vitamin D receptor = biological target: T4, Vitamin D receptor (Homo sapiens, UniProt P11473)
T4 sequence (P11473 1-427): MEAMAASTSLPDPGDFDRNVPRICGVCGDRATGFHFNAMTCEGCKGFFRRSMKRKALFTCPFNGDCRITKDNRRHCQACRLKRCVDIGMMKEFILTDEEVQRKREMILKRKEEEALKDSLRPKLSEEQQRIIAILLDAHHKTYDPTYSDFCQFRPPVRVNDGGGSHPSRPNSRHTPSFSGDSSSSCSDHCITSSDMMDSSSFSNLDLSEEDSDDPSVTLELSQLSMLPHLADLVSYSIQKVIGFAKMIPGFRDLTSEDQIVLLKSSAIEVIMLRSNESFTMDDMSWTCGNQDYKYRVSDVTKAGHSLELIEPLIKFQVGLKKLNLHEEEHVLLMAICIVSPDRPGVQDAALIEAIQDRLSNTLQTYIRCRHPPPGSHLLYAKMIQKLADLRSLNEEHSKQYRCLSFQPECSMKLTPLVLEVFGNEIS

Row | SMILES | binding [1] | binding [2] | binding [3] | receptor activation (Vitamin D receptor)
1 | CC(=O)[C@H]1CC[C@H]2[C@@H]3CC[C@H]4CC(=O)CC[C@]4(C)[C@H]3CC[C@]12C [5α-pregnane-3,20-dione] | does not bind or binds very poorly | binds extremely well | binds extremely well | 
2 | C=C1CC[C@H](O)C/C1=C/C=C1\CCC[C@]2(C)[C@@H]([C@H](C)CCC(O)C(C)(C)O)CC[C@@H]12 (stereo partly shown) [24,25-dihydroxy-Vitamin D] |  |  |  | does not
